Results from paper PMC10661773, “Cytotoxic pathways activated by multifunctional thiosemicarbazones targeting sigma-2 receptors in breast and lung carcinoma cells” (Pharmacological Reports, 2023).

Legend:
A549 = experiment: Cell viability, MTT assay at 48 h; assay type: cell-based; conditions: Homo sapiens, A549; MTT, 48 h; read-out: EC50 ± SEM, tumor cells A549
Procedure: (§1) Human MCF7 breast adenocarcinoma (#HTB-22) and human A549 carcinoma (#CCL-85) cell lines, non-tumor human breast (MCF10A, #CRL-10317) and lung (BEAS-2B, #CRL-9482) cells were obtained from American Type Culture Collection (ATCC, Bethesda, MD). MCF7 cells were cultured in DMEM medium (Gibco Thermo Scientific, Waltham, MA; #10,565,018), A549 in HAM’s F12 medium (Gibco Thermo Scientific; #11,765,054), and BEAS-2B in RPMI-1640 medium (Gibco Thermo Scientific; # 61,870,010), all supplemented with 10% v/v fetal bovine serum (FBS; Sigma, St. Louis, MO; #F4135) and 1% v/v penicillin–streptomycin (Sigma; #P4458). MCF10A cells were cultured in DMEM/F12 medium (Gibco Thermo Scientific; #31,331,028) supplemented with 5% v/v horse serum (Sigma; #H1270) and 1% v/v penicillin–streptomycin, 20 ng/mL epidermal growth factor (Sigma, #E4127), 10 µg/mL insulin (Sigma, #I3536), […] hydrocortisone (Sigma, #H0888), 100 ng/mL cholera toxin (Sigma, #C8052). Cells were kept in a humidified incubator at 37 °C with 5% CO2.
(§2) Cell growth was determined using the MTT assay at 48 h. On day 1, 25,000 cells/well were seeded into 96-well plates in a volume of 100 μL. On day 2, the various drug concentrations (1 μM–100 μM) were added. In all experiments, the various drug solvents (EtOH, Sigma, # E7148; DMSO, Sigma, # D8418) were added to each control to evaluate possible cytotoxicity of the solvent. After the established incubation time with drugs (48 h), MTT (0.5 mg/mL, Sigma # M2003) was added to each well, and after 3–4 h incubation at 37 °C, the supernatant was removed. Formazan crystals were solubilized using 100 μl of DMSO/EtOH (1:1) and absorbance values at 570 and 630 nm were determined on the microplate reader Victor 3 from PerkinElmer Life Sciences (Waltham, MA).

BEAS-2B = experiment: Cell viability, MTT assay at 48 h; assay type: cell-based; conditions: Homo sapiens, read-out: EC50 ± SEM, normal cells BEAS-2B
Procedure: as §1, §2

MCF10A = experiment: Cell viability, MTT assay at 48 h; assay type: cell-based; conditions: Homo sapiens, MCF-10A, read-out: EC50 ± SEM, normal cells MCF10A
Procedure: as §1, §2

MCF7 = experiment: Cell viability, MTT assay at 48 h; assay type: cell-based; conditions: Homo sapiens, MCF7; MTT, 48 h; read-out: EC50 ± SEM, tumor cells MCF7
Procedure: as §1, §2

caspase 3 in A549 cells = experiment: Caspase 3 activity, fluorimetric; assay type: cell-based, human; conditions: A549, 2 h, 50 µM
Procedure: (§3) Activation of caspase 3, caspase 7 and caspase 9 was measured using the Caspase 3/7 Fluorescence Assay kit (Cayman Chemical, Ann Arbor, MI; #10,009,135) and the Caspase 9 fluorimetric assay kit (Enzo Life Science, Roma, Italy; #ALX-850-224). The results were expressed as nmoles of the hydrolyzed substrate of each caspase/mg cellular proteins, according to a previously set titration curve.

caspase 3 in MCF7 cells = experiment: Caspase 3 activity, fluorimetric; assay type: cell-based, human; conditions: MCF7, 2 h, 50 µM
Procedure: as §3

caspase 9 in A549 cells = experiment: Caspase 9 activity, fluorimetric; assay type: cell-based, human; conditions: A549, 2 h, 50 µM
Procedure: as §3

caspase 9 in MCF7 cells = experiment: Caspase 9 activity, fluorimetric; assay type: cell-based, human; conditions: MCF7, 2 h, 50 µM
Procedure: as §3

MCF7 and A549 cells = experiment: Whole cell ROS, DCFDA-AM probe; assay type: cell-based, human; conditions: MCF7 and A549, 2 h, 50 µM
Procedure: Intramitochondrial reactive oxygen species (ROS) were measured using the MitoSOX fluorescent probe (Invitrogen ThermoScientific, # M36008), according to the manufacturer’s instructions. For total ROS, cells were incubated with 5 µmol/L of 5-(and-6)-chlorometyl-20,70-dichlorodihydro-fluorescein diacetate-acetoxymethyl ester (DCFDA-AM, Sigma, #21,884), as described by Riganti et al. 2015 [21]. The results are expressed as nmoles/mg mitochondrial or cellular proteins, respectively.

A549 cells = experiment: Mitochondrial depolarization, JC-1 staining; assay type: cell-based, human; conditions: A549, 2 h, 50 µM
Procedure: (§4) Staining with the JC-1 fluorescent probe (Biotium Inc., Freemont, CA; #30,001-30001-T) was performed as described in Riganti et al. 2015 [21]. Fluorescence units were used to calculate the percentage of green-fluorescent (i.e., depolarized) mitochondria vs red-fluorescent (i.e., polarized) mitochondria.

MCF7 cells = experiment: Mitochondrial depolarization, JC-1 staining; assay type: cell-based, human; conditions: MCF7, 2 h, 50 µM
Procedure: as §4

CN(C)C(=S)N/N=C1\C(=O)N(CCCCN2CCC3(CC2)OCc2ccccc23)c2ccccc21 [FA4, (Z)-2-(1-(4-(3H-spiro[isobenzofuran-1,4′-piperidine]-1′-yl)butyl)-2-oxoindolin-3-ylidene)-N,N-dimethylhydrazinecarbothioamide]
EC50 (A549): 1.84 ± 0.4 µM
EC50 (BEAS-2B): 4.47 ± 1.1 µM
EC50 (MCF10A): 4.31 ± 0.7 µM
EC50 (MCF7): 1.53 ± 0.3 µM
Caspase 3 activation (caspase 3 in A549 cells): most potent inducer of caspase 3 in both cell lines
Caspase 3 activation (caspase 3 in MCF7 cells): most potent inducer of caspase 3 in both cell lines
Caspase 9 activation (caspase 9 in A549 cells): activate
Caspase 9 activation (caspase 9 in MCF7 cells): activate
Rank order of caspase 9 activation (caspase 9 in MCF7 cells): FA4 > MLP44 > PS3 > ACThio1
ROS levels in whole cells (DCFDA-AM) (MCF7 and A549 cells): higher
Mitochondrial depolarization (JC-1 staining) (A549 cells): totally insensitive
Mitochondrial depolarization (JC-1 staining) (MCF7 cells): strong depolarization
